Source: patent US20260263606A1 (priority 2022, published 2026)
pEC50, pIC50: −log10 of the molar value. Read-outs that look alike come from different tables or passages of the source.

How the values were obtained:
METTL3-METTL14 [1] = target: T1, METTL3-METTL14 (Homo sapiens, UniProt Q86U44); settings: for LLE (lipophilic ligand efficiency, pIC50-logP): calculated with DataWarrior; for LE (ligand efficiency): from TR-FRET IC50
Target sequence in this assay (Q9HCE5 whole entry): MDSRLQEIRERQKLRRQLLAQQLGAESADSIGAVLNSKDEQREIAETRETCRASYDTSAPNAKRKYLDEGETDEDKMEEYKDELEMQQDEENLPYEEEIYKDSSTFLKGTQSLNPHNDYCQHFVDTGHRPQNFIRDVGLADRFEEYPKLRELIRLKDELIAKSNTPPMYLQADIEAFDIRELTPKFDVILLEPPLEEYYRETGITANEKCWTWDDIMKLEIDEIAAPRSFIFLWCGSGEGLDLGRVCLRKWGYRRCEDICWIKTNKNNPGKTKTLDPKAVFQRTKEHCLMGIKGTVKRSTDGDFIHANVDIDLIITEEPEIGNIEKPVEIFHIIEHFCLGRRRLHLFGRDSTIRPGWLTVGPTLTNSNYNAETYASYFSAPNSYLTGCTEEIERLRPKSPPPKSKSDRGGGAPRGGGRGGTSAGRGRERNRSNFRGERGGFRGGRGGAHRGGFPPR
Target sequence in this assay (Q86U44 whole entry): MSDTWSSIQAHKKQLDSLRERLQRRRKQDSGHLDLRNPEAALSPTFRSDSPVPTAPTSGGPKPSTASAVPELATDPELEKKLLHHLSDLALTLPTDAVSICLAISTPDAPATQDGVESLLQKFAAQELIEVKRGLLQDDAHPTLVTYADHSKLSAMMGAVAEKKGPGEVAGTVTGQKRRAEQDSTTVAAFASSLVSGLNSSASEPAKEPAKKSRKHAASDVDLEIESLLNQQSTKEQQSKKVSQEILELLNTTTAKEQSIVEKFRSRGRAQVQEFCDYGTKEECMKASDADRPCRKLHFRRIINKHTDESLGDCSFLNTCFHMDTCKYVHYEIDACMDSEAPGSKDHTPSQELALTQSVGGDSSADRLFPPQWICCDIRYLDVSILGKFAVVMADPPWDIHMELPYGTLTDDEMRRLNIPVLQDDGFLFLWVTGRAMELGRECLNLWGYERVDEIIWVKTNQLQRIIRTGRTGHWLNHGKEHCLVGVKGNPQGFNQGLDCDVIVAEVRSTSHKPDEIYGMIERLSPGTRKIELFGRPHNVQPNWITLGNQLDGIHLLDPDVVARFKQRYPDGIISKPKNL

[2] = Rat liver microsomes
METTL3-METTL14 [3] = target: T1, METTL3-METTL14; assay: biochemical
Target sequence in this assay (Q9HCE5 whole entry): as the sequence (Q9HCE5 whole entry) above
Target sequence in this assay (Q86U44 whole entry): as the sequence (Q86U44 whole entry) above

METTL3-METTL14 [4] = target: T1, METTL3-METTL14; assay: Protein thermal shift assay, METTL3/METTL14; settings: read-out: ΔTm of METTL3/METTL14
Target sequence in this assay (Q86U44 whole entry): as above
Target sequence in this assay (Q9HCE5 whole entry partner): as the sequence (Q9HCE5 whole entry) above

[5] = tested on: m^6A/A ratio in polyadenylated RNA, MOLM-13 cells; assay: m6A/A ratio in polyadenylated RNA by UPLC-MS/MS, MOLM-13; settings: Homo sapiens, MOLM-13, 16 h, read-out: EC50 reduction of m^6A/A in polyadenylated RNA
[6] = read-out: IC50 for N6-adenosine-methyltransferase, exemplary PROTAC compounds, Table 9, HTRF, triplicates

SMILES | LLE (lipophilic ligand efficiency, pIC50-logP) (METTL3-METTL14 [1]) | pIC50 (METTL3-METTL14 [1]; [6]) | further results
CNc1cc(N2CCCC(O)(CNC(=O)c3ccc(CN4CCC(C)(C)CC4)cc3)C2)ncn1 (stereo not shown) [Compound 1] | 2.5 |  | LE (ligand efficiency) (METTL3-METTL14 [1]): 0.21 kcal.mol^−1 heavy atom count^−1
CNc1cc(N2CCC(O)(CNc3ccc(CN4CCC(C)(C)CC4)cc3)CC2)ncn1 [Compound 2] | 2.5 |  | pIC50 (METTL3-METTL14 [1]; TR-FRET assay): 5.30
CNc1cc(N2CCC(O)(CNc3ccc(CN4CCC(C)(C)CC4)cn3)CC2)ncn1 [Compound 3] | 3.2 |  | pIC50 (METTL3-METTL14 [1]; TR-FRET assay): 5.34
CNc1cc(N2CCC(O)(CNc3ccc(CN4CCC(C)(C)CC4)nc3)CC2)ncn1 [Compound 4] | 3.4 |  | pIC50 (METTL3-METTL14 [1]; TR-FRET assay): 5.24
CC1(C)CCN(Cc2ccc(NCC3(O)CCN(c4cc(NCc5ccccc5)ncn4)CC3)cn2)CC1 [Compound 5] |  |  | pIC50 (METTL3-METTL14 [1]; TR-FRET assay): 6.10
CC1(C)CCN(Cc2ccc(C(=O)NC3CCN(c4cc(NCc5ccccc5)ncn4)CC3)cn2)CC1 [Compound 6] | 1.7 |  | LE (ligand efficiency) (METTL3-METTL14 [1]): 0.20 kcal.mol^−1 heavy atom count^−1
CC1(C)CCN(Cc2ccc(N3CC(=O)NC4(CCN(c5cc(NCCCNC(=O)CCOCCOCCNc6cccc7c6C(=O)N(C6CCC(=O)NC6=O)C7=O)ncn5)CC4)C3)cc2)CC1 (stereo not shown) [Compound 8-4] |  | 5.61 | 
CC1(C)CCN(Cc2ccc(N3CC(=O)NC4(CCN(c5cc(NCCCNC(=O)CCOCCOCCOCCNc6cccc7c6C(=O)N(C6CCC(=O)NC6=O)C7=O)ncn5)CC4)C3)cc2)CC1 (stereo not shown) [Compound 9-5] |  | 5.97 | 
CNc1cc(N2CCC3(CC2)CN(c2ccc(CN4CCC(C)(C)CC4)cc2)CC(=O)N3)ncn1 [Compound 10, 4-(4-((4,4-dimethylpiperidin-1-yl)methyl)phenyl)-9-(6-(methylamino)pyrimidin-4-yl)-1,4,9-triazaspiro[5.5]undecan-2-one] |  |  | pIC50 (METTL3-METTL14 [1]; TR-FRET assay): 7.05
CC1(C)CCN(Cc2ccc(N3CC(=O)NC4(CCN(c5cc(NCCCNC(=O)CCOCCOCCOCCOCCNc6cccc7c6C(=O)N(C6CCC(=O)NC6=O)C7=O)ncn5)CC4)C3)cc2)CC1 (stereo not shown) [Compound 10-6] |  | 6.23 | 
CNc1cc(N2CC3(CN(c4ccc(CN5CCC(C)(C)CC5)cc4)CC(=O)N3)C2)ncn1 [Compound 11, 8-(4-((4,4-Dimethylpiperidin-1-yl)methyl)phenyl)-2-(6-(methylamino)pyrimidin-4-yl)-2,5,8-triazaspiro[3.5]nonan-6-one] | 4.5 |  | LE (ligand efficiency) (METTL3-METTL14 [1]): 0.26 kcal.mol^−1 heavy atom count^−1; RLM t1/2 [2]: 70 min
CC1(C)CCN(Cc2ccc(N3CC(=O)NC4(CCN(c5cc(NCCCNC(=O)CCOCCOCCOCCOCCOCCNc6cccc7c6C(=O)N(C6CCC(=O)NC6=O)C7=O)ncn5)CC4)C3)cc2)CC1 (stereo not shown) [Compound 11-7] |  | 6.19 | 
CNc1cc(N2CCC3(CC2)CN(c2ccc(CN4CCC(C)(C)CC4)cc2)C(=O)N3)ncn1 [Compound 12] | 2.6 |  | LE (ligand efficiency) (METTL3-METTL14 [1]): 0.23 kcal.mol^−1 heavy atom count^−1
CC1(C)CCN(Cc2ccc(N3CC(=O)NC4(CCN(c5cc(NCCCNC(=O)CCn6cc(CNc7cccc8c7C(=O)N(C7CCC(=O)NC7=O)C8=O)nn6)ncn5)CC4)C3)cc2)CC1 (stereo not shown) [Compound 13-11] |  |  | pIC50 (METTL3-METTL14 [3]): 5.74
CNc1cc(N2CCC3(CC2)CN(c2ccc(CN4CCC(C)(C)CC4)cc2)CC(=O)N3C)ncn1 [Compound 13] | 3.0 |  | pIC50 (METTL3-METTL14 [1]; TR-FRET assay): 5.82; LE (ligand efficiency) (METTL3-METTL14 [1]): 0.22 kcal.mol^−1 heavy atom count^−1
CC1(C)CCN(Cc2ccc(N3CC(=O)NC4(CCN(c5cc(NCCCNC(=O)CCCCCCCCNc6cccc7c6CN(C6CCC(=O)NC6=O)C7=O)ncn5)CC4)C3)cc2)CC1 (stereo not shown) [Compound 14-12] |  | 6.59 | 
CN(C)c1cc(N2CCC3(CC2)CN(c2ccc(CN4CCC(C)(C)CC4)cc2)CC(=O)N3)ncn1 [Compound 14] | 3.2 |  | LE (ligand efficiency) (METTL3-METTL14 [1]): 0.23 kcal.mol^−1 heavy atom count^−1

SMILES | LLE (lipophilic ligand efficiency, pIC50-logP) (METTL3-METTL14 [1]) | pIC50 (METTL3-METTL14 [1]; [6]) | further results
CC(C)Nc1cc(N2CCC3(CC2)CN(c2ccc(CN4CCC(C)(C)CC4)cc2)CC(=O)N3)ncn1 [Compound 15, 4-(4-((4,4-Dimethylpiperidin-1-yl)methyl)phenyl)-9-(6-(isopropylamino)pyrimidin-4-yl)-1,4,9-triazaspiro[5.5]undecan-2-one] | 3.2 |  | LE (ligand efficiency) (METTL3-METTL14 [1]): 0.24 kcal.mol^−1 heavy atom count^−1
CC1(C)CCN(Cc2ccc(N3CC(=O)NC4(CCN(c5cc(NCCCNC(=O)CNc6cccc7c6CN(C6CCC(=O)NC6=O)C7=O)ncn5)CC4)C3)cc2)CC1 (stereo not shown) [Compound 15-13] |  |  | pIC50 (METTL3-METTL14 [3]): 6.28
CC1(C)CCN(Cc2ccc(N3CC(=O)NC4(CCN(c5ccnc6[nH]ccc56)CC4)C3)cc2)CC1 [Compound 18] | 2.3 |  | LE (ligand efficiency) (METTL3-METTL14 [1]): 0.20 kcal.mol^−1 heavy atom count^−1
CC1(C)CCN(Cc2ccc(N3CC(=O)NC4(CCN(c5nc(Cl)nc6[nH]ccc56)CC4)C3)cc2)CC1 [Compound 19, 9-(2-Chloro-7H-pyrrolo[2,3-d]pyrimidin-4-yl)-4-(4-((4,4-dimethylpiperidin-1-yl)methyl)phenyl)-1,4,9-triazaspiro[5.5]undecan-2-one] | 3.9 |  | RLM t1/2 [2]: 32 min
CNc1cc(N2CCC3(CC2)CN(c2cc(F)c(CN4CCC(C)(C)CC4)cc2F)CC(=O)N3)ncn1 [Compound 22, 4-(4-((4,4-Dimethylpiperidin-1-yl)methyl)-2,5-difluorophenyl)-9-(6-(methylamino)pyrimidin-4-yl)-1,4,9-triazaspiro[5.5]undecan-2-one] |  |  | ΔTm at 100 µM (METTL3-METTL14 [4]): 4.7 °C; pEC50 [5]: 6.15
CC1(C)CCN(Cc2cc(F)c(N3CC(=O)NC4(CCN(c5cc(NCC6CCN(C(=O)CCCCCCCCN7CCN(c8cccc9c8C(=O)N(C8CCC(=O)NC8=O)C9=O)CC7)CC6)ncn5)CC4)C3)cc2F)CC1 (stereo not shown) [Compound 49-1] |  |  | pIC50 (METTL3-METTL14 [3]): 8.30
CC1(C)CCN(Cc2cc(F)c(N3CC(=O)NC4(CCN(c5cc(NCc6cccc(CNC(=O)CCCCCCCCNc7cccc8c7CN(C7CCC(=O)NC7=O)C8=O)c6)ncn5)CC4)C3)cc2F)CC1 (stereo not shown) [Compound 50-1] |  | 7.17 | 
CC1(C)CCN(Cc2cc(F)c(N3CC(=O)NC4(CCN(c5cc(NCc6cccc(CNC(=O)CCCCCCCCCCNc7cccc8c7CN(C7CCC(=O)NC7=O)C8=O)c6)ncn5)CC4)C3)cc2F)CC1 (stereo not shown) [Compound 51-1] |  | 6.80 | 
CC1(C)CCN(Cc2cc(F)c(N3CC(=O)NC4(CCN(c5cc(NCc6cccc(CNC(=O)CCCCCCCCn7cc(CNc8cccc9c8C(=O)N(C8CCC(=O)NC8=O)C9=O)nn7)c6)ncn5)CC4)C3)cc2F)CC1 (stereo not shown) [Compound 52-1] |  | 7.06 | 
CC1(C)CCN(Cc2cc(F)c(N3CC(=O)NC4(CCN(c5cc(NCc6cccc(CNC(=O)CCn7cc(CNc8cccc9c8C(=O)N(C8CCC(=O)NC8=O)C9=O)nn7)c6)ncn5)CC4)C3)cc2F)CC1 (stereo not shown) [Compound 53-1] |  |  | pIC50 (METTL3-METTL14 [3]): 6.70
CC1(C)CCN(Cc2ccc(N3CC(=O)NC4(CCN(c5cc(NCCCNC(=O)CCCCCCCCCCCCCCNc6cccc7c6CN(C6CCC(=O)NC6=O)C7=O)ncn5)CC4)C3)cc2)CC1 (stereo not shown) [Compound 54-1] |  | 5.91 | 
CC1(C)CCN(Cc2cc(F)c(N3CC(=O)NC4(CCN(c5cc(NCCCNC(=O)CCCCCCCCNc6cccc7c6CN(C6CCC(=O)NC6=O)C7=O)ncn5)CC4)C3)cc2F)CC1 (stereo not shown) [Compound 55-1] |  | 7.18 | 
CC1(C)CCN(Cc2cc(F)c(N3CC(=O)NC4(CCN(c5cc(NCCCNC(=O)CCCCCCCCCCNc6cccc7c6CN(C6CCC(=O)NC6=O)C7=O)ncn5)CC4)C3)cc2F)CC1 (stereo not shown) [Compound 56-1] |  | 6.52 | 
CC1(C)CCN(Cc2ccc(N3CC(=O)NC4(CCN(c5cc(NCCCNC(=O)CCCCCCCCn6cc(CNc7cccc8c7C(=O)N(C7CCC(=O)NC7=O)C8=O)nn6)ncn5)CC4)C3)cc2)CC1 (stereo not shown) [Compound 57-1] |  |  | pIC50 (METTL3-METTL14 [3]): 6.32
CC1(C)CCN(Cc2cc(F)c(N3CC(=O)NC4(CCN(c5cc(NCCCNC(=O)CCCCCCCCn6cc(CNc7cccc8c7C(=O)N(C7CCC(=O)NC7=O)C8=O)nn6)ncn5)CC4)C3)cc2F)CC1 (stereo not shown) [Compound 58-1] |  | 7.17 | 
CC1(C)CCN(Cc2cc(F)c(N3CC(=O)NC4(CCN(c5cc(NCCCNC(=O)CCCCCCCCCCn6cc(CNc7cccc8c7C(=O)N(C7CCC(=O)NC7=O)C8=O)nn6)ncn5)CC4)C3)cc2F)CC1 (stereo not shown) [Compound 59-1] |  | 6.66 | 
Nc1ncnc2c1ncn2[C@@H]1O[C@H](CSCC[C@H](N)C(=O)O)[C@@H](O)[C@H]1O [SAH, S-adenosyl-L-homocysteine, reference compound] |  |  | ΔTm at 100 µM (METTL3-METTL14 [4]): 2.8 °C
